Earlier results as cited in patent US20240016803A1, “PHARMACEUTICAL COMPOSITION COMPRISING EICOSAPENTAENOIC ACID AND DERIVATIVES THEREOF AND A STATIN” (Amarin Pharmaceuticals Ireland Limited, priority 2013, published 2024).

Settings: repeated twice-daily dosing of 2 icosapent ethyl 1 g capsules (4 g/d total); previously reported

- mean elimination half-life (t1/2) for total plasma EPA: 89 h
Compound: CC/C=C\C/C=C\C/C=C\C/C=C\C/C=C\CCCC(=O)OCC [icosapent ethyl]
